Source: the supplement of paper PMC11061612

Experiments:
Trametinib = compound: CC(=O)Nc1cccc(-n2c(=O)n(C3CC3)c(=O)c3c(Nc4ccc(I)cc4F)n(C)c(=O)c(C)c32)c1 [Trametinib]; settings: max 1 µM
Outline: (§1)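 Plates with 1536 wells received cancer cell lines in 7.5 μl of DMEM/F12 or RPMI containing 10% FBS. After 24 hours at 37°C and 5% CO2, cells were dosed for 72 hours with final DMSO typically 0.2%, and viability was read by CellTiter-Glo 2.0 luminescence scaled between blank-well and DMSO-well means. The single-agent IC50 was taken from a logistic fit of the dose responses made with a non-linear mixed effects model, that logistic curve having two parameters.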

MK-2206 = compound: NC1(c2ccc(-c3nc4ccn5c(=O)[nH]nc5c4cc3-c3ccccc3)cc2)CCC1 [MK-2206]; settings: max 10 µM
Outline: as §1

AZD1390 = compound: CC(C)n1c(=O)n(C)c2cnc3cc(F)c(-c4ccc(OCCCN5CCCCC5)nc4)cc3c21 [AZD1390]; settings: max 0.3 µM
Outline: as §1

Doxorubicin = compound: COc1cccc2c1C(=O)c1c(O)c3c(c(O)c1C2=O)C[C@@](O)(C(=O)CO)C[C@@H]3O[C@H]1C[C@H](N)[C@H](O)[C@H](C)O1 [Doxorubicin]; settings: max 1 µM
Outline: as §1

AZD2811 = compound: CCN(CCO)CCCOc1ccc2c(Nc3cc(CC(=O)Nc4cccc(F)c4)[nH]n3)ncnc2c1 [AZD2811]; settings: max 1 µM
Outline: as §1

Savolitinib = compound: C[C@@H](c1ccc2nccn2c1)n1nnc2ncc(-c3cnn(C)c3)nc21 [Savolitinib]; settings: max 1 µM
Outline: as §1

Selumetinib = compound: Cn1cnc2c(F)c(Nc3ccc(Br)cc3Cl)c(C(=O)NOCCO)cc21 [Selumetinib]; settings: max 10 µM
Outline: as §1

AZD7648 = compound: Cc1cc2ncnn2cc1Nc1ncc2c(n1)n(C1CCOCC1)c(=O)n2C [AZD7648]; settings: max 10 µM
Outline: as §1

Venetoclax = compound: CC1(C)CCC(CN2CCN(c3ccc(C(=O)NS(=O)(=O)c4ccc(NCC5CCOCC5)c([N+](=O)[O-])c4)c(Oc4cnc5[nH]ccc5c4)c3)CC2)=C(c2ccc(Cl)cc2)C1 [Venetoclax]; settings: max 1 µM
Outline: as §1

Crizotinib = compound: C[C@@H](Oc1cc(-c2cnn(C3CCNCC3)c2)cnc1N)c1c(Cl)ccc(F)c1Cl [Crizotinib]; settings: max 10 µM
Outline: as §1

Dasatinib = compound: CC1=C(C(=CC=C1)Cl)NC(=O)C2=CN=C(S2)NC3=CC(=NC(=N3)C)N4CCN(CC4)CCO [Dasatinib]; settings: max 2 µM
Outline: as §1

AZD0156 = compound: CN(C)CCCOc1ccc(-c2ccc3ncc4c(c3c2)n(C2CCOCC2)c(=O)n4C)cn1 [AZD0156]; settings: max 3 µM
Outline: as §1

AZD8186 = compound: C[C@@H](Nc1cc(F)cc(F)c1)c1cc(C(=O)N(C)C)cc2c(=O)cc(N3CCOCC3)oc12 [AZD8186]; settings: max 3 µM
Outline: as §1

Lapatinib = compound: CS(=O)(=O)CCNCc1ccc(-c2ccc3ncnc(Nc4ccc(OCc5cccc(F)c5)c(Cl)c4)c3c2)o1 [Lapatinib]; settings: max 10 µM
Outline: as §1

AZD4320 = compound: CN(CC[C@H](CSC1=CC=CC=C1)NC2=C(C=C(C=C2)S(=O)(=O)NC(=O)C3=CC=C(C=C3)N4CCC(CC4)[C@H](C5=CC=CC=C5C6=CC=C(C=C6)Cl)O)S(=O)(=O)C(F)(F)F)CCO [AZD4320]; settings: max 1 µM
Outline: as §1

AZD6738 = compound: C[C@@H]1COCCN1C2=NC(=NC(=C2)C3(CC3)[S@](=N)(=O)C)C4=C5C=CNC5=NC=C4 [AZD6738]; settings: max 10 µM
Outline: as §1

SN-38 = compound: CCc1c2c(nc3ccc(O)cc13)-c1cc3c(c(=O)n1C2)COC(=O)[C@]3(O)CC [SN-38]; settings: max 0.3 µM
Outline: as §1

Olaparib = compound: O=C(c1cc(Cc2n[nH]c(=O)c3ccccc23)ccc1F)N1CCN(C(=O)C2CC2)CC1 [Olaparib]; settings: max 10 µM
Outline: as §1

Prexasertib = compound: COc1cccc(OCCCN)c1-c1cc(Nc2cnc(C#N)cn2)n[nH]1 [Prexasertib]; settings: max 1 µM
Outline: as §1

SG3199 = compound: CC1=CN2[C@@H](C1)C=NC3=CC(=C(C=C3C2=O)OC)OCCCCCOC4=C(C=C5C(=C4)N=C[C@@H]6CC(=CN6C5=O)C)OC [SG3199]; settings: max 0.001 µM
Outline: as §1

AZD5991 = compound: Cc1c2c(nn1C)CSCc1cc(n(C)n1)CSc1cc(c3ccccc3c1)OCCCc1c(C(=O)O)n(C)c3c-2c(Cl)ccc13 [AZD5991]; settings: max 1 µM
Outline: as §1

Gefitinib = compound: COc1cc2ncnc(Nc3ccc(F)c(Cl)c3)c2cc1OCCCN1CCOCC1 [Gefitinib]; settings: max 10 µM
Outline: as §1

Capivasertib = compound: C1CN(CCC1(C(=O)N[C@@H](CCO)C2=CC=C(C=C2)Cl)N)C3=NC=NC4=C3C=CN4 [Capivasertib]; settings: max 10 µM
Outline: as §1

Palbociclib = compound: CC(=O)c1c(C)c2cnc(Nc3ccc(N4CCNCC4)cn3)nc2n(C2CCCC2)c1=O [Palbociclib]; settings: max 10 µM
Outline: as §1

AZD1775 = compound: C=CCn1c(=O)c2cnc(Nc3ccc(N4CCN(C)CC4)cc3)nc2n1-c1cccc(C(C)(C)O)n1 [AZD1775]; settings: max 3 µM
Outline: as §1

AZD5153 = compound: COc1nnc2ccc(N3CCC(c4ccc(OCCN5CCN(C)C(=O)[C@H]5C)cc4)CC3)nn12 [AZD5153]; settings: max 1 µM
Outline: as §1

Alisertib = compound: COc1cc(Nc2ncc3c(n2)-c2ccc(Cl)cc2C(c2c(F)cccc2OC)=NC3)ccc1C(=O)O [Alisertib]; settings: max 10 µM
Outline: as §1

Taselisib = compound: Cc1nc(-c2cn3c(n2)-c2ccc(-c4cnn(C(C)(C)C(N)=O)c4)cc2OCC3)n(C(C)C)n1 [Taselisib]; settings: max 10 µM
Outline: as §1

Cell Line	IC50, cell viability 72 h (Trametinib)	IC50, cell viability 72 h (MK-2206)	IC50, cell viability 72 h (AZD1390)	IC50, cell viability 72 h (Doxorubicin)	IC50, cell viability 72 h (AZD2811)	IC50, cell viability 72 h (Savolitinib)	IC50, cell viability 72 h (Selumetinib)	IC50, cell viability 72 h (AZD7648)	IC50, cell viability 72 h (Venetoclax)	IC50, cell viability 72 h (Crizotinib)	IC50, cell viability 72 h (Dasatinib)	IC50, cell viability 72 h (AZD0156)	IC50, cell viability 72 h (AZD8186)	IC50, cell viability 72 h (Lapatinib)	IC50, cell viability 72 h (AZD4320)	IC50, cell viability 72 h (AZD6738)	IC50, cell viability 72 h (SN-38)	IC50, cell viability 72 h (Olaparib)	IC50, cell viability 72 h (Prexasertib)	IC50, cell viability 72 h (SG3199)	IC50, cell viability 72 h (AZD5991)	IC50, cell viability 72 h (Gefitinib)	IC50, cell viability 72 h (Capivasertib)	IC50, cell viability 72 h (Palbociclib)	IC50, cell viability 72 h (AZD1775)	IC50, cell viability 72 h (AZD5153)	IC50, cell viability 72 h (Alisertib)	IC50, cell viability 72 h (Taselisib)
SKN-3 (Head and Neck Carcinoma)	> 1000 nM	> 10000 nM	> 300 nM	> 1000 nM	> 1000 nM	> 1000 nM	> 10000 nM	> 10000 nM	> 1000 nM	> 10000 nM	> 2000 nM	> 3000 nM	> 3000 nM	> 10000 nM	> 1000 nM	> 10000 nM	251 nM	> 10000 nM	380 nM	> 1 nM	> 1000 nM	> 10000 nM	> 10000 nM	> 10000 nM	1530 nM	> 1000 nM	> 10000 nM	9180 nM
TYK-nu (Ovarian Carcinoma)	301 nM	> 10000 nM	> 300 nM	> 1000 nM	> 1000 nM	> 1000 nM	4360 nM	> 10000 nM	> 1000 nM	> 10000 nM	> 2000 nM	> 3000 nM	> 3000 nM	> 10000 nM	> 1000 nM	5370 nM	10.8 nM	> 10000 nM	57.2 nM	> 1 nM	> 1000 nM	> 10000 nM	> 10000 nM	> 10000 nM	763 nM	280 nM	> 10000 nM	> 10000 nM
